Measurements from ChEMBL document CHEMBL5346973 (J Med Chem, 2023).
Activity calls are given as the source filed them. The calls are words filed in the database; no cut-off is given here. Where a SMILES comes first, the peptide text is derived from it.

What was measured:
Format in all cases: cell-based
[1] = target: Nicotinic acetylcholine receptor alpha9/alpha10 (Rattus norvegicus) (UniProt P43144+Q9JLB5); assay: Antagonist activity at rat alpha9alpha10 nACh receptor expressed in Xenopus oocyte assessed as inhibition of acetylcholine-induced response at -70 mV holding potential at 10 uM measured after 5 mins by voltage-clamp based electrophysiological assay
[2] = target: Nicotinic acetylcholine receptor alpha9/alpha10 (Rattus norvegicus, UniProt P43144+Q9JLB5); assay: Antagonist activity at rat alpha9alpha10 nACh receptor expressed in Xenopus oocyte assessed as inhibition of acetylcholine-induced response at -70 mV holding potential by voltage-clamp based electrophysiological assay
[3] = target: Neuronal acetylcholine receptor subunit alpha-7 (Rattus norvegicus, UniProt Q05941); assay: Antagonist activity at rat alpha7 nACh receptor expressed in Xenopus oocyte assessed as inhibition of acetylcholine-induced response at -70 mV holding potential by voltage-clamp based electrophysiological assay
Chain of Neuronal acetylcholine receptor subunit alpha-7 (Q05941 whole entry): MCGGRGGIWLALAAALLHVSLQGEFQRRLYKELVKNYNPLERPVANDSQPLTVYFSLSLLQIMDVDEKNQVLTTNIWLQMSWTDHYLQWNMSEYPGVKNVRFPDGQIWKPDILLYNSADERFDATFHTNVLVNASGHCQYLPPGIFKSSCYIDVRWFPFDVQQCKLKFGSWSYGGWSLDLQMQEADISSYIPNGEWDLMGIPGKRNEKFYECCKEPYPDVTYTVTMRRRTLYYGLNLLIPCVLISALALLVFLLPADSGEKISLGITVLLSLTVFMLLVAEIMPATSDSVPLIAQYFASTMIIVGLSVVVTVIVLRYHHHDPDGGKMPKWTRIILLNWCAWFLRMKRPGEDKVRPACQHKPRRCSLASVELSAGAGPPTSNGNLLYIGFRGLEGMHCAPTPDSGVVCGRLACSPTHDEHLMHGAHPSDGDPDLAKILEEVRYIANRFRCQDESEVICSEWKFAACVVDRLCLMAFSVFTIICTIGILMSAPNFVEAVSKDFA

Chain of Nicotinic acetylcholine receptor alpha9/alpha10 (P43144 whole entry): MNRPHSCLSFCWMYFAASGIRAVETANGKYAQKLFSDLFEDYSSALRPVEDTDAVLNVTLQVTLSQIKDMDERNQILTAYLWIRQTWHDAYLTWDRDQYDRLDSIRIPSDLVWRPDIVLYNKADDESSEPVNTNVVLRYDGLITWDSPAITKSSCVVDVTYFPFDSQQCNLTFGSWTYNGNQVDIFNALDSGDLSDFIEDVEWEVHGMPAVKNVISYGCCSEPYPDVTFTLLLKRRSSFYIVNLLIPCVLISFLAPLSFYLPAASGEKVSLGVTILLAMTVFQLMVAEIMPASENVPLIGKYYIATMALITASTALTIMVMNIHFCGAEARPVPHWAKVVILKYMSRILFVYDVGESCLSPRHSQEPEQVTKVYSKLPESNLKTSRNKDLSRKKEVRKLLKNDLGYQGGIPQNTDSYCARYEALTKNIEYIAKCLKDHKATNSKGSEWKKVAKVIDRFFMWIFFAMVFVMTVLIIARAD
Chain of Nicotinic acetylcholine receptor alpha9/alpha10 (Q9JLB5 whole entry): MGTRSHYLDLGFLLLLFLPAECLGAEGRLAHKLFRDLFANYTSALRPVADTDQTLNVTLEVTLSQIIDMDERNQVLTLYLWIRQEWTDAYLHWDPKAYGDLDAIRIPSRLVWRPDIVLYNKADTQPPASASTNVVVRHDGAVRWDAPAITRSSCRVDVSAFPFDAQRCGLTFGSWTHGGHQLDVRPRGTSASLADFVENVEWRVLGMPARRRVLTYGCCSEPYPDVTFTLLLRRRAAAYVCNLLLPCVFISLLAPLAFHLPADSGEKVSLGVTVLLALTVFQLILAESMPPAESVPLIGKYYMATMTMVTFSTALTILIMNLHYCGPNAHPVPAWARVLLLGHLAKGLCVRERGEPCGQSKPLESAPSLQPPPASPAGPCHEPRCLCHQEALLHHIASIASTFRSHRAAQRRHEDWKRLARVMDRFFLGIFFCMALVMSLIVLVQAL

Compound	Activity [1]	IC50 [2]	IC50 [3]
CC[C@H](C)[C@@H]1NC(=O)[C@H](C)NC(=O)[C@H](C)NC(=O)[C@@H](NC(=O)[C@H](Cc2ccc(O)cc2)NC(=O)[C@H](C)NC(=O)[C@H](C)NC(=O)[C@H](C)NC(=O)[C@H](C)NC(=O)[C@H](CC(=O)O)NC(=O)[C@H](Cc2ccc(O)cc2)NC(=O)[C@@H]2CCCN2C(=O)[C@H](CO)NC(=O)[C@H](C)NC(=O)[C@@H]2CSSC[C@H](NC(=O)[C@@H](N)[C@@H](C)O)C(=O)N[C@@H](C)C(=O)N[C@@H](CO)C(=O)N[C@@H](CO)C(=O)NCC(=O)N[C@@H](C)C(=O)N[C@@H](Cc3ccc(O)cc3)C(=O)N2)CSSC[C@@H](C(=O)N[C@H](C(=O)O)C(C)C)NC(=O)[C@H](C)NC(=O)[C@H](CC(=O)O)NC(=O)[C@H]([C@@H](C)O)NC1=O (HELM PEPTIDE1{T.C.A.S.S.G.A.Y.C.A.S.P.Y.D.A.A.A.A.Y.C.A.A.I.T.D.A.C.V}$PEPTIDE1,PEPTIDE1,2:R3-9:R3|PEPTIDE1,PEPTIDE1,20:R3-27:R3$$$V2.0)	inactive	> 10 µM	
CC[C@H](C)[C@@H]1NC(=O)[C@H](CCCNC(=N)N)NC(=O)[C@H](CCCNC(=N)N)NC(=O)[C@@H]2CSSC[C@H](NC(=O)[C@H](Cc3ccc(O)cc3)NC(=O)[C@H](CCCNC(=N)N)NC(=O)CNC(=O)[C@H](CO)NC(=O)[C@H](CO)NC(=O)[C@H](C)NC(=O)[C@@H](NC(=O)[C@@H](N)[C@@H](C)O)CSSC[C@@H](C(=O)N[C@H](C(=O)O)C(C)C)NC(=O)[C@H](C)NC(=O)[C@H](CC(=O)O)NC(=O)[C@H]([C@@H](C)O)NC1=O)C(=O)N[C@@H](CCCNC(=N)N)C(=O)N[C@@H](CO)C(=O)N1CCC[C@H]1C(=O)N[C@@H](Cc1ccc(O)cc1)C(=O)N[C@@H](CC(=O)O)C(=O)N[C@@H](CCCNC(=N)N)C(=O)N[C@@H](CCCNC(=N)N)C(=O)N[C@@H](CCCNC(=N)N)C(=O)N[C@@H](CCCNC(=N)N)C(=O)N[C@@H](Cc1ccc(O)cc1)C(=O)N2		0.037 µM	9.05 µM
CC[C@H](C)[C@H]1NC(=O)[C@H](CCCNC(=N)N)NC(=O)[C@H](CCCNC(=N)N)NC(=O)[C@@H](NC(=O)[C@H](Cc2ccc(O)cc2)NC(=O)[C@H](CCCNC(=N)N)NC(=O)[C@H](CCCNC(=N)N)NC(=O)[C@H](CCCNC(=N)N)NC(=O)[C@H](CCCNC(=N)N)NC(=O)[C@H](CC(=O)O)NC(=O)[C@H](Cc2ccc(O)cc2)NC(=O)[C@@H]2CCCN2C(=O)[C@H](CO)NC(=O)[C@H](CCCNC(=N)N)NC(=O)[C@@H]2CSSC[C@H](NC(=O)[C@@H](N)[C@@H](C)O)C(=O)N[C@@H](C)C(=O)N[C@@H](CO)C(=O)N[C@@H](CO)C(=O)NCC(=O)N[C@@H](CCCNC(=N)N)C(=O)N[C@@H](Cc3ccc(O)cc3)C(=O)N2)CSSC[C@@H](C(=O)N[C@H](C(=O)O)C(C)C)NC(=O)[C@H](C)NC(=O)[C@H](CC(=O)O)NC(=O)[C@H]([C@@H](C)O)NC1=O		0.074 µM	1.13 µM
CC(C)C[C@H](NC(=O)[C@H](CCCCN)NC(=O)[C@H](CC(N)=O)NC(=O)[C@@H]1CCCN1C(=O)[C@H](CCC(N)=O)NC(=O)[C@H](C)NC(=O)CNC(=O)[C@H](CO)NC(=O)[C@H](CCCCN)NC(=O)[C@H](CCC(=O)O)NC(=O)[C@H](CC(C)C)NC(=O)[C@H](CS)NC(=O)[C@@H](CCCNC(=N)N)NC(=O)[C@@H](N)C(C)C)C(=O)N[C@@H](Cc1ccccc1)C(=O)N[C@@H](CCCNC(=N)N)C(=O)N1CCC[C@H]1C(=O)N1CCC[C@H]1C(=O)N[C@@H](CS)C(=O)N[C@@H](CS)C(=O)N[C@@H](CCC(N)=O)C(=O)N[C@@H](CCCCN)C(=O)NCC(=O)N1CCC[C@H]1C(=O)N[C@@H](CO)C(=O)N[C@@H](Cc1ccccc1)C(=O)N[C@@H](C)C(=O)N[C@@H](CCCNC(=N)N)C(=O)N[C@@H](Cc1cnc[nH]1)C(=O)N[C@@H](CO)C(=O)N[C@@H](CCCNC(=N)N)C(=O)N[C@@H](CS)C(=O)N[C@H](C(=O)N[C@@H](Cc1ccc(O)cc1)C(=O)N[C@@H](Cc1ccc(O)cc1)C(=O)N[C@H](C(=O)N[C@@H](CCC(N)=O)C(=O)N[C@@H](CO)C(=O)N[C@@H](CCCNC(=N)N)C(=O)N[C@@H](CCC(=O)O)C(=O)O)[C@@H](C)O)C(C)C		1.2 µM	
CC[C@H](C)[C@@H]1NC(=O)[C@H](CCCNC(=N)N)NC(=O)[C@H](CCCNC(=N)N)NC(=O)[C@@H](NC(=O)[C@H](Cc2ccc(O)cc2)NC(=O)[C@H](C)NC(=O)[C@H](C)NC(=O)[C@H](C)NC(=O)[C@H](C)NC(=O)[C@H](CC(=O)O)NC(=O)[C@H](Cc2ccc(O)cc2)NC(=O)[C@@H]2CCCN2C(=O)[C@H](CO)NC(=O)[C@H](CCCNC(=N)N)NC(=O)[C@@H]2CSSC[C@H](NC(=O)[C@@H](N)[C@@H](C)O)C(=O)N[C@@H](CCCNC(=N)N)C(=O)N[C@@H](CO)C(=O)N[C@@H](CCCNC(=N)N)C(=O)NCC(=O)N[C@@H](CCCNC(=N)N)C(=O)N[C@@H](Cc3ccc(O)cc3)C(=O)N2)CSSC[C@@H](C(=O)N[C@H](C(=O)O)C(C)C)NC(=O)[C@H](C)NC(=O)[C@H](CC(=O)O)NC(=O)[C@H]([C@@H](C)O)NC1=O (HELM PEPTIDE1{T.C.R.S.R.G.R.Y.C.R.S.P.Y.D.A.A.A.A.Y.C.R.R.I.T.D.A.C.V}$PEPTIDE1,PEPTIDE1,2:R3-9:R3|PEPTIDE1,PEPTIDE1,20:R3-27:R3$$$V2.0)	inactive	> 10 µM	
CC[C@H](C)[C@@H]1NC(=O)[C@H](CCCNC(=N)N)NC(=O)[C@H](CCCNC(=N)N)NC(=O)[C@@H](NC(=O)[C@H](Cc2ccc(O)cc2)NC(=O)[C@H](CCCNC(=N)N)NC(=O)[C@H](CCCNC(=N)N)NC(=O)[C@H](CCCNC(=N)N)NC(=O)[C@H](CCCNC(=N)N)NC(=O)[C@H](CC(=O)O)NC(=O)[C@H](Cc2ccc(O)cc2)NC(=O)[C@@H]2CCCN2C(=O)[C@H](CO)NC(=O)[C@H](C)NC(=O)[C@@H]2CSSC[C@H](NC(=O)[C@@H](N)[C@@H](C)O)C(=O)N[C@@H](C)C(=O)N[C@@H](CO)C(=O)N[C@@H](CO)C(=O)N[C@@H](C)C(=O)N[C@@H](CCCNC(=N)N)C(=O)N[C@@H](Cc3ccc(O)cc3)C(=O)N2)CSSC[C@@H](C(=O)N[C@H](C(=O)O)C(C)C)NC(=O)[C@H](C)NC(=O)[C@H](CC(=O)O)NC(=O)[C@H]([C@@H](C)O)NC1=O (HELM PEPTIDE1{T.C.A.S.S.A.R.Y.C.A.S.P.Y.D.R.R.R.R.Y.C.R.R.I.T.D.A.C.V}$PEPTIDE1,PEPTIDE1,2:R3-9:R3|PEPTIDE1,PEPTIDE1,20:R3-27:R3$$$V2.0)	inactive	> 10 µM	
CC[C@H](C)[C@@H]1NC(=O)[C@H](CCCNC(=N)N)NC(=O)[C@H](CCCNC(=N)N)NC(=O)[C@@H](NC(=O)[C@H](Cc2ccc(O)cc2)NC(=O)[C@H](CCCNC(=N)N)NC(=O)[C@H](CCCNC(=N)N)NC(=O)[C@H](C)NC(=O)[C@H](C)NC(=O)[C@H](CC(=O)O)NC(=O)[C@H](Cc2ccc(O)cc2)NC(=O)[C@@H]2CCCN2C(=O)[C@H](CO)NC(=O)[C@H](CCCNC(=N)N)NC(=O)[C@@H]2CSSC[C@H](NC(=O)[C@@H](N)[C@@H](C)O)C(=O)N[C@@H](CCCNC(=N)N)C(=O)N[C@@H](CO)C(=O)N[C@@H](CO)C(=O)NCC(=O)N[C@@H](CCCNC(=N)N)C(=O)N[C@@H](Cc3ccc(O)cc3)C(=O)N2)CSSC[C@@H](C(=O)N[C@H](C(=O)O)C(C)C)NC(=O)[C@H](C)NC(=O)[C@H](CC(=O)O)NC(=O)[C@H]([C@@H](C)O)NC1=O		0.26 µM	
CC[C@H](C)[C@@H]1NC(=O)[C@H](CCCNC(=N)N)NC(=O)[C@H](CCCNC(=N)N)NC(=O)[C@@H](NC(=O)[C@H](Cc2ccc(O)cc2)NC(=O)[C@H](C)NC(=O)[C@H](CCCNC(=N)N)NC(=O)[C@H](C)NC(=O)[C@H](CCCNC(=N)N)NC(=O)[C@H](CC(=O)O)NC(=O)[C@H](Cc2ccc(O)cc2)NC(=O)[C@@H]2CCCN2C(=O)[C@H](CO)NC(=O)[C@H](CCCNC(=N)N)NC(=O)[C@@H]2CSSC[C@H](NC(=O)[C@@H](N)[C@@H](C)O)C(=O)N[C@@H](CCCNC(=N)N)C(=O)N[C@@H](CO)C(=O)N[C@@H](CO)C(=O)NCC(=O)N[C@@H](CCCNC(=N)N)C(=O)N[C@@H](Cc3ccc(O)cc3)C(=O)N2)CSSC[C@@H](C(=O)N[C@H](C(=O)O)C(C)C)NC(=O)[C@H](C)NC(=O)[C@H](CC(=O)O)NC(=O)[C@H]([C@@H](C)O)NC1=O		0.41 µM	
